Data published in patent publication US12391672B2, “Solid forms comprising (S)-4-(4-(4-(((2-(2,6-dioxopiperidin-3-yl)-1-oxoisoindolin-4-yl)oxy)methyl)benzyl)piperazin-1-yl)-3-fluorobenzonitrile and salts thereof, and compositions comprising and methods of using the same” (Celgene Corporation, priority 2019, dated 2025).
“And” between values parts separate entries of the source, which are not always exact repeats. Equal entries are not always repeated.

Experiments:
Assay type in all cases: physicochemical
[1] = Mechanical stressing (grinding, compression); details: compressed under 2000 psi for 1 minute
Experimental: Mechanical stressing experiment: the following table describes three experiments involving mechanical stressing of Form A and/or Form B of free base Compound 1 by grinding with a mortar and pestle.
Shear Sensitivity: Form K was compressed under 2000 psi for 1 minute and analyzed by XRPD.

[2] = Dynamic vapor sorption / hygroscopicity
How it was run: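 Sample equilibrated at 50% r.h. on a microbalance, then one cycle at ±5% r.h. h^−1 spanning 0–95% r.h., with 5 h holds at 0% and 95% r.h. and 2 h holds at 50% r.h., run either desorption-first or sorption-first. Hygroscopicity classed from mass gain at 85% r.h. relative to initial mass.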

[3] = Storage at controlled relative humidities (Form K / Form K′)
From the text: It was noticed that after Form K was dried, the XRPD peaks of Form K shifted to a higher value and the resulting XRPD pattern is called Form K′. To further understand the relationships between the two forms, free base Form K and Form K′ were placed on XRPD sample holders and stored in a closed Jars with saturated salt solutions for RH controls at ambient temperature, respectively. […] The XRPD diffractograms of the samples after 2-day storage are presented in FIG. 132 and FIG. 133, respectively. […] Since the peaks of Form K shifted to higher 2-theta value as Form K loses water molecules to Form K′, Form K and Form K′ are on a continuum.

[4] = Solubility determination (15 minutes at room temperature, HPLC); details: fifteen minutes
Experimental: 1 mL of buffer or of ultrapure (resistivity≥18.2 Mf cm) water was added to a pre-weighed, approximately twenty milligram aliquot of the substance to be measured. The resulting suspensions were stirred for 15 minutes at room temperature with magnetic stirrers. The suspensions were centrifuged and filtered through Millipore 0.2 μm PVDF filters, and the concentration of each filtrate (i.e., saturated solution) was determined using a general HPLC method. The pH of each saturated solution was measured with a Metrohm 713 pH meter.
To assess whether Form K and Form K′ are likely to have different bioavailabilities, comparative solubility measurements were carried out in physiologically relevant media. Samples of Form K and Form K′ were separately equilibrated in pure water, pH 2.0 buffer, and pH 6.8 buffer for fifteen minutes, and the solids were then separated from the solvents. The concentration of the compound in the filtrate (i.e., the solubility) was assessed in each case, and the solid residues were also monitored by powder X-ray diffraction. All six solid residues correspond to Form K, confirming that Form K′ rapidly incorporates water into its lattice when suspended in an aqueous environment even when the solubility is low. While the solubilities in pure water and at pH 6.8 were below the limit of quantitation of 0.0001 mg/mL, the solubilities at pH 2.0 could be measured. […] Thus, the bioavailabilities of the two forms are expected to be similar, and precise control of the water content (and, thereby, the solid form) is presumably not necessary from a scientific point of view. Given that the critical water activity is in the range aH2O=0.11-0.17, the hydrated Form K is likely to be the more easily stabilized of the two forms under ambient laboratory conditions.

[5] = Competitive slurry and slurry stability experiments; details: acetone/water, water contents 5% vol. and higher, room temperature and 45° C.
Experimental: Form B was obtained at room temperature while form C was obtained at 45° C. in acetone alone.
The HBr salt was largely insoluble in various buffers when 1 mg/mL slurries were prepared and the mother liquor concentration determined (by HPLC): <0.05 mg/mL in all buffers tested.

[6] = Solubility of polymorphic forms in physiologically relevant media and final pH
From the text: Solubility data of the several polymorphic forms of Compound 1 in physiologically relevant media and the final pH of these solutions are summarized in the following tables.

## N#Cc1ccc(N2CCN(Cc3ccc(COc4cccc5c4CN([C@H]4CCC(=O)NC4=O)C5=O)cc3)CC2)c(F)c1.O [Form K of a free base of Compound 1]
[1]
  Shear Sensitivity (XRPD): remained as Form K
[2]; DVS sorption, corresponding to ~1 mole of water
  plateau in water uptake: ~3.2 % w/w
[2]; DVS, class by mass gain at 85% r.h.
  hygroscopicity: slightly hygroscopic (slightly hygroscopic (mass increase of <2% but ≥0.2%))
[2]; after the DVS humidity cycle
  solid form after DVS cycle: stable with respect to application of a DVS cycle
[2]; relative humidity from about 5% to about 95%
  DVS mass increase: about 3.2%
[3]; 11% RH, ambient temperature
  form conversion on storage (XRPD): converts to K′
[3]; aH2O
  critical water activity range for interconversion of Form K and Form K′: 0.11-0.22 and 0.11-0.17
[3]; stored at 17% r.h. and r.t. for 5.5 d
  PXRD result after storage: Form K
[4]; pH 2.0 buffer
  solubility at pH 2.0: 0.96 mg/mL
[4]; pure water, pH 2.0 buffer and pH 6.8 buffer
  solid residue after solubility measurement (powder X-ray diffraction): Form K
[5]
  competitive slurry of Form B, Form C and Form K: most stable form
[6]; FaSSIF
  Solubility: 1 µg/mL
[6]; FeSSiF
  Solubility: 5 µg/mL
[6]; SGF with pepsin
  Solubility: 420 µg/mL
[6]; Water
  Solubility: <LOQ
[6]; pH 1 buffer HC1/NaC1
  Solubility: 133 µg/mL
[6]; pH 3 buffer (phosphate)
  Solubility: 90 µg/mL
[6]; pH 4 buffer (acetate)
  Solubility: 11 µg/mL
[6]; pH 5 buffer (acetate)
  Solubility: 1 µg/mL
[6]; solubility sample in FaSSIF
  Final pH: 6.33
[6]; solubility sample in FeSSiF
  Final pH: 5.02
[6]; solubility sample in SGF with pepsin
  Final pH: 1.47
[6]; solubility sample in Water
  Final pH: 6.71
[6]; solubility sample in pH 1 buffer HC1/NaC1
  Final pH: 1.20
[6]; solubility sample in pH 3 buffer (phosphate)
  Final pH: 3.09
[6]; solubility sample in pH 4 buffer (acetate)
  Final pH: 3.98
[6]; solubility sample in pH 5 buffer (acetate)
  Final pH: 5.01
